Test [1] has as its system LNCaP cells. Put plainly: XTT cell proliferation (cell viability) assay in LNCaP cells. The conditions noted are these: Homo sapiens, mean±S.E.M., read-out: IC50 (anti-proliferative activity, XTT). Type of test: cell-based. On the procedure: (§1) Human metastatic prostate cancer cells, LNCaP, were obtained from ATCC (Manassas, Va., USA). Cells were grown in RPMI-1640 medium supplemented with 2mM glutamine, 10% FBS, 100 U/mL penicillin, and 100 μg/mL streptomycin. LNCaP cells were maintained in a humidified atmosphere of 5% CO2 at 37° C. in T-75 flasks and were subcultured when confluent. Experiments were conducted using cells with passage numbers ranging from 5-20.
The anti-proliferative effect of carvacrol was assessed in human metastatic prostate cancer cells, LNCaP, using the XTT cell proliferation assay. This assay is a colorimetric assay that detects cellular metabolic activities. In this assay, the second generation tetrazolium dye XTT (2,3-bis (2-methoxy-4-nitiro-5-sulfophenyl)-5-[(phenylamino)-carbonyl]-2H tetrazolium hydroxide), is reduced to a soluble, brightly orange colored formazan derivative. To improve the sensitivity of XTT assay, PMS (N-methyl dibenzopyrazine methyl sulfate), an intermediate electron carrier is used. This color change is accomplished by breaking apart the positively charged quaternary tetrazole ring. Mitochondrial oxidoreductases present in viable cells are thought to contribute substantially to the XTT response with their reductants being transferred to the plasma membrane.
LNCaP cells at the density of 10,000 cells/well were seeded into flat-bottom, 96-well microtiter plates (100 μL/well) and allowed to attach and grow for 24 hours, the cells were then treated with 0.1 μM, 1 μM, 10 μM, 100 μM, 1000 μM, and 3000 μM of carvacrol for 24, 48, and 96 hours. […] After incubation, an orange colored formazan product was formed and the absorbance was read at 475 nm using BioTek microplate reader. […] Cell viability of the drug-treated cells was calculated as a fraction of solvent control and the anti-proliferative activity of carvacrol was expressed in terms in IC50 valuesIC50 values of carvacrol were calculated using GraphPad Prism 4 (GraphPad Software Inc., Calif., USA), and are expressed as the means of ±S.E.M> of n≧4 experiments, with triplicate determinations in each experiment. […]
On the technique in general: Tetrazolium assays rely on reduction of a dye to a coloured formazan, in cell work by metabolically active cells.

Test [2] deals with LNCaP cells. Kind of test: DNA fragmentation assay (Apoptotic DNA-Ladder Kit) in LNCaP cells. Type of test: cell-based, Human. The conditions noted are these: 10 μM and 1000 μM, 48 hours. On the procedure: as §1
During apoptosis, pro-apoptotic proteins such as apoptosis-inducing factor (AIF), endonuclease G, and caspase-activated DNase (CAD) are released from the mitochondria, which occur after the cell has committed to die. AIF, after translocation to the nucleus, causes DNA fragmentation (˜50-300 kb pieces) and peripheral nuclear chromatin condensation which is referred to as “stage 1” condensation. Endonuclease G also cleaves nuclear chromatin to produce oligonucleosomal DNA fragments following its translocation to the nucleus. Both, AIF and endonuclease G function in caspase-independent manner. CAD subsequently released from mitochondria, after getting cleaved by activated caspase-3, is known to translocate into the nucleus leading to oligonucleosomal cleavage of DNA into 180 by fragments and a more pronounced chromatin condensation referred to as “stage 11” condensation.
This cleaved DNA is easily observed as a “ladder” upon analysis by gel electrophoresis. […]

Test [3] has as its system PC-3 cells. Put plainly: Phosphatidylserine externalization by fluorescence microscopy (PSVue 480) in PC-3 cells. It is filed as cell-based, Human. Conditions: 10 μM and 1000 μM, 48 hours, dose-dependent. As to the method:
(§2) Cell Line and Culture Conditions • Human metastatic, androgen insensitive prostate cancer cells, PC-3, were obtained from ATCC (Manassas, Va., USA). Cells were grown in F-12K medium supplemented with 2 mM glutamine, 10% FBS, 100 U/mL penicillin, and 100 μg/mL streptomycin. PC-3 cells were maintained in a humidified atmosphere of 5% CO2 at 37° C. in T-75 flasks and were subcultured when confluent.
One of the earliest events to occur in apoptosis or programmed cell death is externalization of phosphatidylserine (PS), a membrane phospholipid restricted to the inner leaflet of the lipid bilayer. Redistribution of PS from inner leaflet of plasma membrane lipid bilayer to the outer leaflet occurs in cells undergoing apoptosis. The PSVue™ 480 reagent kit was used to perform the phosphatidylserine (PS) externalization assay. The principle behind this assay involves a strong binding of PSVue™ 480 (fluorescent probe) to the anionic PS residues exposed on the surface of apoptotic cells by its Zn (II)-dipicolylamine (Zn-DPA) functionality, making it a useful apoptotic sensor.
To detect PS externalization, PC-3 cells were seeded at a density of 0.5×10^6 cells/well in flat-bottom, 6-well microtiter plates and were allowed to incubate for 24 h. After 24 h of incubation at 37° C., cells were treated with 10 μM and 1000 μM of carvacrol for 48 h. […]

In test [4] the test system is PC-3 cells. Kind of test: Morphological analysis of PC-3 cells. Type of test: cell-based, Human. Conditions: 10 μM and 1000 μM, 48 h. As to the method: as §2
These typical features of apoptosis were used to evaluate the mechanism of decreased cell proliferation by carvacrol in PC-3 cells.
In order to identify the morphological changes in PC-3 cells after treatment with carvacrol, 2×10^6 cells/well were seeded in flat-bottom, 6-well microtiter plates, allowed to grow for 24 h, then treated with 10 μM and 1000 μM of carvacrol, and incubated further for 48 h at 37° C. After incubation, cells were washed twice with PBS, and microscopic photographs of morphological changes of the cells were captured using a fluorescent microscope, Axiovert 200M (Carl Zeiss MicroImaging Inc, NY, USA). 1.15% EtOH was used as a solvent control.

Read-outs that look alike come from different tables or passages of the source.

By IC50 is commonly meant the concentration that gives 50% inhibition. As to `Cc1ccc(C(C)C)cc1O` [Carvacrol], the IC50 was 1670 ± 179 µM in test [1] (24 hours treatment), 269 ± 58 µM in test [1] (48 hours treatment) and 13.7 ± 4.42 µM in test [1] (96 hours treatment). Also, the “fragmentation of DNA” value in test [2] is listed as “Fragmentation of DNA was observed”. The “externalization of phosphatidylserine residues (PSVue 480 positive cells)” value in test [3] is “showed externalization of phosphatidylserine residues”. The “morphological changes (features of apoptosis)” value in test [4] was “exhibited typical features of apoptosis like rounding of cells, membrane blebbing, and cell shrinkage”.

These data come from patent US20140100290A1, “Method of treating a prostate condition” (priority 2012, published 2014).
